Assay results as given in patent US20240336657A1, “G-ALPHA-S PEPTIDE INHIBITORS AND USES THEREOF” (The Regents of the University of California, priority 2021, published 2024).
Positions of bridges follow the written chain, without caps; N, C: chain ends. Non-standard residues stand in square brackets, D forms with d. Residues, ends and D or L forms follow the SMILES beside them.

Tests used:
[1] = biological target: T1, GDP-bound Gαs (Homo sapiens, UniProt P63092); experiment: Bio-layer interferometry (BLI) binding kinetics
T1 construct: hexahistidine (N, cleaved yes); made in house; host or cells: Escherichia coli BL21(DE3)
Method: BLI experiments were performed using an OctetRED384 instrument from ForteBio. All experiments were performed at 25° C. using BLI buffer (10 mM HEPES pH 7.4, 150 mM NaCl, 1 mM MgCl2, 0.05% Tween-20, 0.1% DMSO, 0.2 mM GppNHp or GDP). Cyclic peptides were diluted to a series of concentrations in BLI buffer plus 10 μM Biotin. Assays were conducted in Greiner 384well, black, flat bottom polypropylene plates containing the protein solutions, BLI buffer plus 10 μM Biotin for dissociation, and serial dilutions of cyclic peptides to be tested.
Biotinylated proteins were immobilized on Streptavidin biosensors by dipping sensors into plate wells containing protein solutions at a concentration of 100-150 nM. Protein loading is around 2-3 nm. Sensors loaded with proteins were moved and dipped into wells with BLI buffer plus 10 μM Biotin to block unlabeled Streptavidin. Association-dissociation cycles of compounds were started by moving and dipping sensors to cyclic peptides dilutions and BLI buffer plus 10 μM Biotin wells alternatively. Association and dissociation times were carefully determined to ensure full association and dissociation.
Raw kinetic data collected were processed with the Data Analysis software provided by the manufacturer using single reference subtraction in which buffer-only reference was subtracted (For GN13 analysis). Because GD20 analogs have a low level of background binding, we used a double reference subtraction (buffer-only reference and non-protein-loading reference) method to calculate their kinetics values. The resulting data were analyzed based on a 1:1 binding model from which kon and koff values were obtained and then Kd values were calculated.

[2] = biological target: Gαs (Homo sapiens, UniProt P63092); experiment: GTPγS binding assay ([35S]GTPγS); assay type: biochemical; design: made in house; host or cells: Escherichia coli BL21(DE3)
Chain of Gαs (P63092 1-380 isoform P63092-2): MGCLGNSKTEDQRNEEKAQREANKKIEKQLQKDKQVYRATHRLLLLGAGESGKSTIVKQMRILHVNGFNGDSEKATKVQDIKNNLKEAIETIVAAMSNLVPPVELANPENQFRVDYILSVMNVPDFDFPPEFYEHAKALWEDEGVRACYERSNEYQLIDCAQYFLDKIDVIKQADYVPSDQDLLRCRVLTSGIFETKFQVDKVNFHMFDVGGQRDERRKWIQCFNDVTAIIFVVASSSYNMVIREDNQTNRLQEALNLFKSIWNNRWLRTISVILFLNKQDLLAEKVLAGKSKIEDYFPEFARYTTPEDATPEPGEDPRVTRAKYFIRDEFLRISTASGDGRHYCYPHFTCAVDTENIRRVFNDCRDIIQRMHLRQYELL
Method: Gα proteins were diluted to 10 μM with dilution buffer (20 mM HEPES 7.5, 150 mM NaCl, 1 mM MgCl2, 2 mM DTT, and 20 μM GDP) and incubated with 5× stocks of cyclic peptides at room temperature for 2 hours. GTPγS binding was initiated by mixing with the reaction buffer at room temperature (50 nM [35S]GTPγS and 100 μM GTPγS in dilution buffer) at room temperature. At various time points, 10 μL of the sample was removed and mixed with 390 μL of ice-cold wash buffer (20 mM HEPES 7.5, 150 mM NaCl, 20 mM MgCl2). The mixture was filtered through a mixed cellulose membrane (25 mm, 0.22 μm). The membrane was washed by ice-cold wash buffer (500 μL×3), put in a 6-mL plastic vial and air-dried (room temperature 1.5 h). 5 mL of CytoScint-ES Liquid Scintillation Cocktail (MP Biomedicals) was added to each vial. After incubation overnight at room temperature, the vial was used for liquid scintillation counting with a LS 6500 Multi-Purpose Scintillation Counter. A standard curve was generated using [35S]GTPγS. The radioactive activity (Counts per minute) of the samples were converted to the GTPγS concentration. The GTPγS binding curves were fitted by the software GraphPad Prism using the following equation to calculate the apparent GTPγS binding rates (kapp): […]
in which “Y” is the concentration of GTPγS that bound to Gα protein at time “X” (minutes).

[3] = Plasma stability assay in human plasma; assay type: in vitro ADME; settings: both sexes, pooled human plasma, 37° C., values represent 95% confidence intervals
Method: These assays were conducted by Pharmaron Beijing CO., Ltd. Cyclic peptides working solutions were prepared at 10 μM in DMEM with 10% FBS (Avantor, Cat #76294-180) or human plasma (Pooled, Male & Female, BioIVT, Cat #HMN666664). The assays were performed in duplicate. Vials were incubated at 37° C. at 60 rpm in a water bath and taken at designated time points including 0, 480, 1080 and 1440 min. For each time point, the initiation of the reaction was staggered so all the time points were terminated with cold acetonitrile containing internal standards (IS, 100 nM alprazolam, 200 nM labetalol, 200 nM Imipramine and 2 μM ketoplofen) at the same time. Samples were vortexed then centrifuged at 4° C. to remove proteins. The supernatants from centrifugation were diluted by ultra-pure H2O and used for LC-MS/MS analysis. All calculations were carried out using GraphPad Prism. Remaining percentages of parent compounds at each time point were estimated by determining the peak area ratios from extractedion chromatograms.

[4] = system: biotinylated Gαs WT and His-tagged Gβγ(C68S); experiment: FRET based Gα/Gβγ interaction assay; assay type: binding, human; settings: Gαs/Gβγ versus Gαi/Gβγ
Method: When we compared our GD20-bound Gαs structure with another GDP-bound Gαs structure in complex with Gβγ (FIG. 20D) (Liu et al., 2019), we noticed that GD20 induces a significant conformational shift of the Gβγ binding surface, and GD20 occupies the Gβγ binding surface in a competitive manner (FIGS. 20E-20F). […] Finally, 2× stocks of cyclic peptides were added with the protein mixtures. After incubation at room temperature for 2 hour at room temperature. The plate was read on a TECAN Spark 20 M plate reader using the TR-FRET mode with the following parameters: Lag time: […], Integration time: […], Read A: Ex 320(25) nm (filter), Em 610(20) nm (filter), Gain 130, Read B: Ex 320(25) nm (filter), Em 665(8) nm (filter), Gain 165. FRET Signal was calculated as the ratio of [Read B]/[Read A].

binding to GDP-bound Gαs ([1]; highest concentration tested) | effect on the apparent rate of GTPγS binding (kapp) to Gαs [2] | Compound | half-life at 10 μM [3] [min] | selectivity for Gαs than Gαi in the FRET assay [4] [fold] | Kd ([1]; GDP/Gαs) [nM] | koff ([1]; GDP/Gαs) [s⁻¹] | kon ([1]; GDP/Gαs) [M⁻¹ s⁻¹]
no detectable binding | increased | CC[C@H](C)[C@@H]1NC(=O)[C@H](C)NC(=O)[C@H](Cc2ccc(O)cc2)NC(=O)[C@H](C(C)C)NC(=O)[C@H](CO)NC(=O)[C@H](CCC(=O)O)NC(=O)[C@H](Cc2ccccc2)NC(=O)[C@@H](Cc2ccc(O)cc2)NC(=O)CSC[C@@H](C(=O)NCC(N)=O)NC(=O)[C@H](CC(C)C)NC(=O)[C@H]([C@@H](C)O)NC(=O)CNC(=O)[C@H](Cc2c[nH]c3ccccc23)NC1=O [GN13] ({CH2CO}-[dY]FESVYAIWGTLCG-NH2; thioether N-13) |  |  |  |  | 
 |  | CC[C@H](C)[C@@H]1NC(=O)[C@H](CC(C)C)NC(=O)[C@@H](Cc2ccc(O)cc2)NC(=O)CSC[C@@H](C(=O)NCC(N)=O)NC(=O)[C@@H]2CCCN2C(=O)[C@H](CC(C)C)NC(=O)[C@H](CC(N)=O)NC(=O)[C@H](CC(C)C)NC(=O)[C@H](C)NC(=O)[C@H](Cc2c[nH]c3ccccc23)NC(=O)[C@H](CCC(N)=O)NC(=O)[C@H](CCCNC(=N)N)NC(=O)[C@H](Cc2ccccc2)NC(=O)[C@H]([C@@H](C)O)NC1=O [GD20-F10L] ({CH2CO}-[dY]LITFRQWALNLPCG-NH2; thioether N-14) | 430 to 764 | 100 | 14.5 ± 0.4 | 0.00358 | 247000
